In patent publication US20230339939A1 (Bayer Aktiengesellschaft, priority 2020, published 2023):

Tests used:
[1] = molecular target: CSNK1A1 (Homo sapiens (Human), UniProt P48729); assay: CSNK1A1 Assay 1 (ADP-Glo, 1 μM ATP, substrate Btn-Ahx-[…]); type: biochemical; conditions: median, comparison compounds of WO 2016/120196 (Table 4), read-out: CSNK1A1 Assay 1 IC50 [mol/l] (median)
Experimental: CSNK1A1-inhibitory activity of compounds of the present invention in presence of 1 μM adenosine-tri-phosphate (ATP) was quantified employing the CSNK1A1 assay as described in the following paragraphs. In essence, the enzyme activity is measured by quantification of the adenosine-di-phosphate (ADP), which is generated as a co-product of the enzyme reaction, via the “ADP-Glo™ Kinase Assay” kit from the company Promega. This detection system works as follows: In a first step the ATP not consumed in the kinase reaction is quantitatively converted to cAMP employing an adenylate cyclase (“ADP-Glo-reagent”), then the adenylate cyclase is stopped and the ADP generated in the kinase reaction converted to ATP which generates in a luciferase-based reaction a glow-luminescence signal (“Kinase Detection Reagent”).
Recombinant fusion protein of N-terminal Glutathion-S-Transferase (GST) and full-length human CSNK1A1, expressed by baculovirus infected insect cells and purified via Glutathion affinity chromatography, was purchased from Life Technologies (product no. PV4174) and used as enzyme. As substrate for the kinase reaction the biotinylated peptide Btn-Ahx-[…] (C-terminus in amide form) was used which can be purchased e.g. from the company Biosyntan (Berlin-Buch, Germany). […]

[2] = molecular target: wild-type Epidermal Growth Factor Receptor (EGFR) (Homo sapiens (Human), UniProt P00533); assay: WT-EGFR Kinase Assay (TR-FRET, 2 mM ATP); type: biochemical; conditions: read-out: EGFR Wildtype-2 mM ATP IC50 [mol/l] (median), comparison compounds of WO 2016/120196 (Table 4)
From the text: Inhibitory activity of compounds of the present invention against wild-type Epidermal Growth Factor Receptor (EGFR) was quantified employing the TR-FRET based EGFR assay as described in the following paragraphs.
Recombinant fusion protein of N-terminal Glutathion-S-Transferase (GST) and a fragment of human EGFR (amino acids R669 to A1210), expressed in Sf9 insect cells and purified via affinity chromatography using Glutathion Sepharose as described above, was used as kinase. As substrate for the kinase reaction the biotinylated peptide biotin-Ahx-[…] (C-terminus in amide form) was used which can be purchased e.g. form the company Biosynthan GmbH (Berlin-Buch, Germany).
For the assay 50 nl of a 100 fold concentrated solution of the test compound in DMSO was pipetted into either a black low volume 384 well microtiter plate or a black 1536 well microtiter plate (both Greiner Bio-One, Frickenhausen, Germany), 2 μL of a solution of EGFR in aqueous assay buffer [50 mM Hepes pH 7.0, 10 mM MgCl2, 1 mM dithiothreitol, 0.5 mM EGTA, 0.3 mM activated sodium ortho-vanadate, 0.005% (w/v) bovine serum albumin, 0.005% (v/v) Tween-20] were added and the mixture was incubated for 15 min at 22° C. to allow pre-binding of the test compounds to the enzyme before the start of the kinase reaction. […] The concentration of EGFR was adjusted depending of the activity of the enzyme lot and was chosen appropriate to have the assay in the linear range, typical concentration was 7.6 pg/μL. The reaction was stopped by the addition of 3 μL of a solution of HTRF detection reagents (83.3 nM streptavidine-XL665 [Cisbio Bioassays, Codolet, France] and 1.67 nM PT66-Tb-Cryptate, a terbium-cryptate labelled anti-phospho-tyrosine antibody from Cisbio Bioassays [instead of the PT66-Tb-cryptate PT66-Eu-Chelate from Perkin Elmer can also be used]) in an aqueous EDTA-solution (133.3 mM EDTA, 0.2% (w/v) bovine serum albumin in 50 mM HEPES pH 7.5).
The resulting mixture was incubated 1 h at 22° C. to allow the binding of the biotinylated phosphorylated peptide to the streptavidine-XL665 and the PT66-Tb-Cryptate. Subsequently the amount of phosphorylated substrate was evaluated by measurement of the resonance energy transfer from the PT66-Tb-Cryptate to the streptavidine-XL665. Therefore, the fluorescence emissions at 620 nm and 665 nm after excitation at 337 nm were measured in a HTRF reader, e.g. a Pherastar (BMG Labtechnologies, Offenburg, Germany) or a Viewlux (Perkin-Elmer). The ratio of the emissions at 665 nm and at 622 nm was taken as the measure for the amount of phosphorylated substrate.

Chain of CSNK1A1 (P48729 whole entry): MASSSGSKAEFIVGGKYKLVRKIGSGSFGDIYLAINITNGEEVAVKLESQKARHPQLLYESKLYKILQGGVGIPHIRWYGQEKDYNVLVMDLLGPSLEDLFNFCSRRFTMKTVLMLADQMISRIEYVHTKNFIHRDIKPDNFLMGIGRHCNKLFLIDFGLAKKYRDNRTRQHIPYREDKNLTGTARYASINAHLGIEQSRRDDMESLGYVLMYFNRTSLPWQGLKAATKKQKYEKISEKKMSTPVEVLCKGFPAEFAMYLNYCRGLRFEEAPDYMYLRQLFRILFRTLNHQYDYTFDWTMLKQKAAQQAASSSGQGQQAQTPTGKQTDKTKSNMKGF

## 2-(4-fluorophenyl)-N-{4-[7-(2-oxopyrrolidin-1-yl)-3-(pyridin-2-yl)-1H-pyrrolo[3,2-b]pyridin-2-yl]pyridin-2-yl}acetamide [Example 40]
[1]
  IC50: 0.0241 µM
[2]
  IC50: 0.0855 µM
